Holding throughout (type): functional, cell-based
The test system of one experiment is K562. As to the kind of experiment: Cytotoxicity against Homo sapiens (human) K562 cells by MTT assay. A general note: Formazan colour is commonly taken as a measure of viable cells.
In a further experiment the test system is HeLa. Nature of the experiment: Cytotoxicity against Homo sapiens (human) HeLa cells by MTT assay.
The subject of a further experiment is HCT-116. Nature of the experiment: Cytotoxicity against Homo sapiens (human) HCT116 cells by MTT assay.
The test system of another experiment is SGC-7901. Nature of the experiment: Cytotoxicity against Homo sapiens (human) SGC7901 cells by MTT assay.
The subject of another experiment is DU-145. As to the kind of experiment: Cytotoxicity against Homo sapiens (human) DU145 cells by MTT assay.

This note sets out measurements from ChEMBL document CHEMBL3045913, “Synthesis and cytotoxicity of novel chrysin derivatives” (Med Chem Res, 2011).

Some results are limits rather than exact numbers.

The term IC50 denotes the concentration at which inhibition is half-maximal. A higher IC50 goes with lower potency. In the case of `CN(C)CCOc1cc(O)c2c(=O)cc(-c3ccccc3)oc2c1`, the IC50 with K562 turned out to be 17.9 µM; in the experiment with HeLa, 17.7 µM; with HCT-116, 6.2 µM; in the experiment with SGC-7901, 11 µM; in the experiment on DU-145, 17.7 µM.
For the molecule `O=c1cc(-c2ccccc2)oc2cc(OCCN3CCN(c4ccccc4)CC3)cc(O)c12`, the IC50 in the experiment with K562, with HeLa, in the experiment on HCT-116, with SGC-7901 and with DU-145 was > 100 µM throughout.
For `O=c1cc(-c2ccccc2)oc2cc(OCCN3CCNCC3)cc(O)c12`, the IC50 in the experiment on K562 is > 100 µM; in the experiment with HeLa, > 100 µM; in the experiment with HCT-116, 32.3 µM; with SGC-7901, > 100 µM; in the experiment on DU-145, 32.5 µM.
`CCCN(CCC)CCOc1cc(O)c2c(=O)cc(-c3ccccc3)oc2c1`: the IC50 with K562 was > 100 µM; with HeLa, 1.56 µM; in the experiment on HCT-116 it was 38 µM; in the experiment on SGC-7901 it was 23.6 µM; in the experiment with DU-145, 8.4 µM.
`O=c1cc(-c2ccccc2)oc2cc(OCCN3CCOCC3)cc(O)c12`: the IC50 is > 100 µM in the experiment on K562; > 100 µM with HeLa; > 100 µM in the experiment on HCT-116; 43 µM with SGC-7901; > 100 µM in the experiment on DU-145.
Regarding `CNCCOc1cc(O)c2c(=O)cc(-c3ccccc3)oc2c1`, the IC50 in the experiment on K562 was determined as 7.8 µM; in the experiment with HeLa it was 3.72 µM; in the experiment with HCT-116, 2.5 µM; in the experiment on SGC-7901, 4.8 µM; with DU-145, 2.95 µM.
For `O=c1cc(-c2ccccc2)oc2cc(OCCNCCO)cc(O)c12` the same measures were 8.31 µM, 4.46 µM, 2.3 µM, 5.05 µM and 5.5 µM.
As to `O=c1cc(-c2ccccc2)oc2cc(OCCNC3CCCCC3)cc(O)c12`, the IC50 in the experiment with K562 is 1.76 µM; in the experiment on HeLa, 6.97 µM; in the experiment with HCT-116 it was 2.95 µM; in the experiment with SGC-7901 it was 6.18 µM; in the experiment with DU-145, 4.98 µM.
With `O=c1cc(-c2ccccc2)oc2cc(OCCN(CCO)CCO)cc(O)c12`, the IC50 was 105 µM in the experiment with K562; 86.5 µM with HeLa; 22.2 µM with HCT-116; 59.2 µM in the experiment on SGC-7901; > 100 µM in the experiment on DU-145.
As to `O=c1cc(-c2ccccc2)oc2cc(OCCNc3ccccc3)cc(O)c12`, the IC50 was 31.2 µM in the experiment with K562; > 100 µM with HeLa; 35.5 µM in the experiment on HCT-116; 69.8 µM with SGC-7901; 68.2 µM in the experiment with DU-145.
In the case of `O=c1[nH]cc(F)c(=O)[nH]1` [FLUOROURACIL], the values for the IC50 in the experiment with SGC-7901 and with DU-145 were 2.19 µM and 2.95 µM, respectively.
Turning to `O=c1cc(-c2ccccc2)oc2cc(OCCN3CCCCC3)cc(O)c12`, the IC50 in the experiment with K562 is 16.9 µM; with HeLa, 1.7 µM; with HCT-116, > 100 µM; with SGC-7901, 3.1 µM; in the experiment on DU-145 it was 3.17 µM.
On to `CC(C)NCCOc1cc(O)c2c(=O)cc(-c3ccccc3)oc2c1`, for which the IC50 in the experiment on K562 is > 100 µM; in the experiment on HeLa it was > 100 µM; with HCT-116, 8.1 µM; with SGC-7901, > 100 µM; in the experiment on DU-145, > 100 µM.
On to `CCCNCCOc1cc(O)c2c(=O)cc(-c3ccccc3)oc2c1`, for which the half-inhibitory concentration (IC50) with K562 came out at 12.9 µM; in the experiment on HeLa, 56.6 µM; in the experiment on HCT-116 it was 1.5 µM; in the experiment on SGC-7901, 11.1 µM; in the experiment on DU-145, 1.4 µM.
For `Cc1nccn1CCOc1cc(O)c2c(=O)cc(-c3ccccc3)oc2c1` the same measures were 10.8 µM, 9.7 µM, 3.2 µM, 7.83 µM and 8.2 µM.
Take `O=c1cc(-c2ccccc2)oc2cc(O)cc(O)c12` [CHRYSIN]: the IC50 in the experiment on K562 is > 100 µM; in the experiment on HeLa, 43 µM; with HCT-116 it was > 100 µM; in the experiment on SGC-7901 it was > 100 µM; in the experiment on DU-145, 9.81 µM.
Regarding `CC(C)N(CCOc1cc(O)c2c(=O)cc(-c3ccccc3)oc2c1)C(C)C`, the IC50 in the experiment on K562 was 27.8 µM; in the experiment with HeLa it was 24.2 µM; in the experiment on HCT-116 it was 4.6 µM; in the experiment with SGC-7901 it was 7.98 µM; in the experiment with DU-145, 18.1 µM.
The like results for `CCN(CC)CCOc1cc(O)c2c(=O)cc(-c3ccccc3)oc2c1` were, in that order, 12.9 µM, 18.8 µM, 9.8 µM, 13.9 µM and 3.17 µM.
With `O=c1cc(-c2ccccc2)oc2cc(OCCn3ccnc3)cc(O)c12`, the IC50 amounted to 27.2 µM in the experiment on K562; 10.8 µM in the experiment with HeLa; 4.2 µM in the experiment on HCT-116; 5.55 µM in the experiment with SGC-7901; 7.3 µM in the experiment on DU-145.
With `CCCCNCCOc1cc(O)c2c(=O)cc(-c3ccccc3)oc2c1`, the 50% inhibitory concentration (IC50) was 14.9 µM with K562; 40.9 µM in the experiment on HeLa; 2.7 µM with HCT-116; 1.88 µM in the experiment on SGC-7901; 1.85 µM in the experiment with DU-145.
Consider `CN1CCN(CCOc2cc(O)c3c(=O)cc(-c4ccccc4)oc3c2)CC1`, for which the IC50 stood at 23.9 µM in the experiment on K562; 47.4 µM with HeLa; 18.7 µM with HCT-116; 55.7 µM in the experiment with SGC-7901; 28.7 µM in the experiment on DU-145.
For `CCCCN(CCCC)CCOc1cc(O)c2c(=O)cc(-c3ccccc3)oc2c1` the same measures were 43.4 µM, 13.3 µM, 9.7 µM, 53.3 µM and 44.2 µM.
For `CC(C)(C)NCCOc1cc(O)c2c(=O)cc(-c3ccccc3)oc2c1` the same measures were > 100 µM, 4.92 µM, 1.87 µM, 3.15 µM and 2.75 µM.
